# Experimental data: US20080287375A1, “Selective Glycosidase Inhibitors, Methods of Making Inhibitors, and Uses Thereof” (SIMON FRASER UNIVERSITY, priority 2005, published 2008)
# “Also recorded” adds a separate entry of the source.
# Key:
# [1] = system: O-GlcNAc modified proteins in rat tissues; experiment: Clearance rate: time course of tissue O-GlcNAc levels in rats after tail vein injection; assay type: in vivo; settings: 50 mg kg^−1 tail vein
# Description: To obtain information for how rapid the inhibitor is cleared from tissues, five 10-week old Sprague-Dawley rats were given a tail vein injection of the inhibitor (50 mg kg^−1). The animals were sacrificed sequentially 3, 7, 24, 27, and 32 hours following the injection. Two additional rats were used as controls. One rat was sacrificed immediately before the others received their injections in order to obtain information about the normal levels of O-GlcNAc modified proteins. Also, one rat was injected with sterilized PBS (pH 7.4) along with the other rats and sacrificed at the end of the experiment (32 hours). Tissue collection, homogenization, and western blot analyses were done in the same matter as described above.
# [2] = system: COS-7 cells; experiment: Proliferation rate and morphology of COS-7 cells incubated with inhibitors; assay type: cell-based; settings: 50 μM inhibitor
# Description: (§1) COS-7 cells were cultured in DMEM medium (Invitrogen) supplemented with 5-10% FBS (Invitrogen). Aliquots of inhibitors (50 μL of a stock in 95% ethanol) were delivered onto tissue culture plates and the ethanol was evaporated. The cells were incubated at 37° C. for 40 hours at which time they reached approximately 80% confluence. […] COS-7 cells were cultured to 25% confluence in 5% FBS and an aliquot (100 μL) of inhibitor dissolved in media and filter sterilized was added to each plate to yield a final concentration of 50 μM of inhibitor. COS-7 cells (2×10 cm plates) were harvested at the appropriate times by scraping and were pooled by centrifugation (200×g, 10 min). Cells were washed once with PBS, pH 7.0 (10 mL) and pelleted (200×g, 10 min). The cells could be frozen at −80° C. at this point. Control cultures without inhibitors were treated in the same manner.
# [3] = biological target: human placental β-hexosaminidase; experiment: Inhibition of β-hexosaminidase, substrate MU-GlcNAc (5), Dixon plots; settings: read-out: β-Hexosaminidase KI; Table 2; substrate 5 at 0.64 mM, pH 4.25, Dixon plots
# [4] = system: O-GlcNAc-modified proteins in COS-7 cells; experiment: Western blot of O-GlcNAc-modified proteins in COS-7 cells cultured with inhibitors; assay type: cell-based; settings: 50 μM inhibitor
# Description: as §1
# A culture of control cells was treated in the same manner as follows but the cultures contained no inhibitor. Cells were harvested as described above. Frozen cells were thawed at 4° C., and cold lysis buffer (1 mL of 50 mM Tris, pH 8.0 containing 150 mM NaCl, 1 mM EDTA, 1 mM PMSF, 1% NP-40, 0.5% sodium deoxycholate, and 1 mM of inhibitor 90) was added. After 10 minutes at 4° C. the solution was centrifuged at 14,000 rpm in an Eppendorf 5415C microcentrifuge and the supernatant was collected. SDS/PAGE loading buffer was added to an aliquot (15 μL) of each sample, and after heating at 96° C. aliquots were loaded onto 10% or 12% Tris-HCl polyacrylamide gels. After electrophoresis, the samples were electroblotted to nitrocellulose membrane (0.45 μm, Bio-Rad). Transfer was verified by visual inspection of the transfer of prestained markers (Dual Colour Precision Plus Protein Standard—Biorad). The membrane was blocked by using 5% BSA (fraction V, Sigma) in PBS (blocking buffer A for samples probed with mouse anti-O-GlcNAc monoclonal IgM antibody (MAb CTD 110.6—Covance)) or 5% low-fat dry powdered milk (blocking buffer B for samples probed with anti-β-actin), pH 7.4, containing 0.1% Tween 20 for 1 h at room temperature or overnight at 4° C. The blocking solution was decanted, and a solution of blocking buffer A containing MAb CTD 110.6 (1:2500 of the stock) or blocking buffer B containing mouse monoclonal anti-β-actin IgG (Clone AC-40—Sigma) was added (1:1000 dilution) as appropriate. The membrane was incubated at room temperature for 1 h or overnight at 4° C. after which the blocking buffer was decanted and the membrane was rinsed with PBS, pH 7.4, containing 0.1% Tween 20 (wash buffer). Membranes were then rinsed for 2×5 min and 3×15 min with wash buffer. For immunological detection of O-GlcNAc, the membrane was incubated in blocking buffer A for 1 hour at RT and, after washing, the membrane was incubated with a secondary goat anti-mouse-IgM-HRP-conjugate (1:2500, Santa Cruz Biotech) for one hour at RT or 4° C. overnight in blocking solution. For detection of β-actin levels, the membrane was incubated with a secondary goat anti-mouse-IgG-HRP conjugate (1:100000, Sigma) for one hour at RT or 4° C. overnight in blocking solution B. Membranes were washed and detection of membrane bound goat anti-mouse-IgG-HRP conjugate was accomplished by chemiluminescent detection using the SuperSignal West Pico Chemiluminescent Detection Kit (Pierce) and film (Kodak Biomax MR).
compound,measurement,setting,value
"CCCC1=N[C@@H]2[C@@H](O)[C@H](O)[C@@H](CO)O[C@@H]2S1 [Compound 9c, 1,2-dideoxy-2′-propyl-α-D-glucopyranoso-[2,1-d]-2′-thiazoline]","cellular levels of O-GlcNAc modified proteins in brain, 24 hours after injection",[1],dropped
same,"cellular levels of O-GlcNAc modified proteins in brain, seven hours after injection",[1],remained high
same,"cellular levels of O-GlcNAc modified proteins in brain, three hours after injection",[1],marked increases
same,time after which O-GlcNAc levels return to normal levels,[1]; brain,about 32 hours
same,time to elevate O-GlcNAc levels in tissues,[1]; brain and muscle,< 3 h
same,time within which the inhibitor is cleared from the tissues and O-GlcNAc levels return to normal,[1]; brain and muscle,24 to 32 h
same,proliferation rate or morphology compared to control cells,[2],no abnormalities in proliferation rate or morphology
same,Ki,[3],340 µM
same,cellular levels of O-GlcNAc-modified proteins compared to control,"[4]; 40 hours, Western blot",Marked increases; also recorded: increase in cellular levels of O-GlcNAc-modified proteins
same,levels of O-GlcNAc-modified proteins after one hour of exposure,[4]; one hour,increases in levels of O-GlcNAc-modified proteins were observed
same,levels of O-GlcNAc-modified proteins as a function of time,[4]; over 40 hours,clear time dependent increase
